pIC50: −log10 of the molar value. In brackets after ≈: the same amount, converted by molar mass. Read-outs that look alike come from different tables or passages of the source.
Columns and labels:
VERO cells (CCL-81) = test: Mammalian cell cytotoxicity assay (tetrazolium dye); assay type: cell-based; settings: Chlorocebus sabaeus, read-out: IC50 VERO
Experimental: (b) Mammalian cell cytotoxicity assay. This was assessed against VERO cells (CCL-81, American Type Culture Collection) in a 72 h exposure, using a tetrazolium dye assay (Falzari et al., 2005).

[1] = test system: Trypanosoma cruzi amastigotes (Tulahuen C2C4 strain); test: Trypanosoma cruzi assay in infected L-6 cells; assay type: cell-based; settings: L6, 96 h incubation, read-out: IC50 T. cruzi
Experimental: (§1) (c) Antiprotozoal screening. Compounds were evaluated for their activities against both Trypanosoma cruzi amastigotes and Leishmania donovani amastigotes (free or encapsulated in macrophages), according to the following protocols:
(i) Trypanosoma cruzi assay. L-6 cells (2×10^3) in medium (100 μL of RPMI 1640 supplemented with 2 mM L-glutamine plus 10% heat inactivated fetal calf serum) were seeded in 96-well microtitre plates (Costar™) and incubated at 37° C. (5% CO2) for 1d. A suspension (50 μL) of Trypanosoma cruzi trypomastigotes (5×10^3 of Tulahuen C2C4 strain, containing the β-galactosidase gene) was added, and the cells were incubated at 37° C. (5% CO2) for a further 48 h to establish the infection. The medium was removed and replaced by fresh medium and the infected cells were then incubated at 37° C. (5% CO2) for 96 h in either medium alone or in the presence of serial (3-fold) dilutions of test compounds (initially prepared as 10 mg/mL stock solutions in DMSO and diluted into medium). Benznidazole was employed as a standard in each assay. Following incubation, chlorophenol red glycoside (100 mM) in 0.1% Nonidet P40/PBS (50 μL) was added, and (after 6 h) the absorbance at 540 nm was measured and used to calculate the IC50 values.

[2] = test system: Axenically grown L. donovani amastigotes (MHOM-ET-67/L82); test: Axenic Leishmania donovani assay; assay type: cell-based; settings: 70 h incubation, read-out: IC50 L. donovani axen
Experimental: as §1
(ii) Axenic Leishmania donovani assay. Axenically grown L. donovani amastigotes (MHOM-ET-67/L82) from a healthy culture in log phase were seeded at a density of 1×10^6/mL medium (SM, pH 5.4 plus 10% heat inactivated fetal calf serum) in 96-well microtitre plates (Costar™) and incubated at 37° C. (5% CO2) for 70 h in either medium alone or in the presence of serial (3-fold) dilutions of test compounds (initially prepared as 10 mg/mL stock solutions in DMSO and diluted into medium). Miltefosin was employed as a standard in each assay. After incubation, Resazurin fluorescent dye was added to each well, and incubation was continued for an additional 2 h. The IC50 values were determined from measurements of the fluorescence data.

[3] = test system: L. donovani amastigotes (MHOM-ET-67/L82) in mouse macrophages; test: Leishmania donovani infected macrophage assay; assay type: cell-based; settings: 96 h incubation, read-out: IC50 L. donovani macro
Experimental: as §1
(iii) Leishmania donovani infected macrophage assay. Freshly harvested mouse macrophages in medium (RPMI 1640 plus 10% heat inactivated fetal calf serum) were incubated at 37° C. (5% CO2) for 24 h and then infected (1:3 macrophages to amastigotes) with an axenic L. donovani amastigote culture (MHOM-ET-67/L82) in medium (SM, pH 5.4 plus 10% heat inactivated fetal calf serum). The infected macrophages were seeded at a density of 1.2×10^6/mL (by diluting in RPMI+10% FCS) in 16-well slides (Lab-tek™) and incubated at 37° C. (5% CO2) for 24 h. The medium was removed and replaced by fresh medium (RPMI 1640+10% FCS), and this was repeated following mixing. The infected macrophages were then incubated at 37° C. (5% CO2) for 96 h in either medium alone or in the presence of serial (3-fold) dilutions of test compounds (initially prepared as 10 mg/mL stock solutions in DMSO and diluted into medium). Miltefosin was employed as a standard in each assay. […], the slides were fixed (5 min in 100% MeOH) and stained (10% Giemsa, 10 min). The ratio of infected to uninfected macrophages was determined by microscopic examination, and the IC50 values were then calculated by linear regression analysis.

[4] = test system: replicating Mycobacterium tuberculosis; test: MABA microplate Alamar blue assay, MIC (aerobic); assay type: cell-based; settings: 192 h

| Compound | melting point | also measured |
| --- | --- | --- |
| CC1(COc2ccc(-c3ccc(F)cc3)nc2)Cn2cc([N+](=O)[O-])nc2O1 (centres unmarked) | 180 to 181 °C |  |
| O=[N+]([O-])c1cn2c(n1)OC(COCc1ccc(OCc3ccccc3)cc1)CC2 (centres unmarked) [Compound 49, 7-({[4-(benzyloxy)benzyl]oxy}methyl)-2-nitro-6,7-dihydro-5H-imidazo[2,1-b][1,3]oxazine] | 151 to 153 °C | pIC50 (VERO cells (CCL-81); 72 h exposure): < 3.89; IC50 [1]: 0.55 µg/mL (≈ 1.39 µM); IC50 [2]: 0.048 µg/mL (≈ 0.121 µM); IC50 [3]: 0.065 µg/mL (≈ 0.164 µM) |
| CC1(COc2ccc(-c3ccc(F)cc3)cn2)Cn2cc([N+](=O)[O-])nc2O1 (centres unmarked) | 162 to 164 °C |  |
| O=[N+]([O-])c1cn2c(n1)OCC(COc1ccc(-c3ccc(C(F)(F)F)cc3)cc1)C2 (centres unmarked) | 218 to 221 °C |  |
| CC1(COc2ccc(-c3ccc(F)cc3)cc2)Cn2cc([N+](=O)[O-])nc2O1 (centres unmarked) [Compound 10, 2-{[(4′-fluoro[1,1′-biphenyl]-4-yl)oxy]methyl}-2-methyl-6-nitro-2,3-dihydroimidazo[2,1-b][1,3]oxazole] | 180 to 181 °C | MIC [4]: 0.045 µM (≈ 0.0166 µg/mL); pIC50 (VERO cells (CCL-81); 72 h exposure): < 3.89; IC50 [1]: 2 µg/mL (≈ 5.41 µM); IC50 [2]: 0.04 µg/mL (≈ 0.108 µM); IC50 [3]: 0.23 µg/mL (≈ 0.623 µM) |
| O=[N+]([O-])c1cn2c(n1)OC(COc1ccc(-c3ccc(C(F)(F)F)cc3)cc1)C2 (centres unmarked) | 210 to 211 °C |  |
| CC1(COc2ccc(-c3ccc(C(F)(F)F)cc3)cc2)CCn2cc([N+](=O)[O-])nc2O1 (centres unmarked) | 196 to 198 °C |  |
| O=[N+]([O-])c1cn2c(n1)OC(COc1ccc(-c3ccc(OC(F)(F)F)cc3)cn1)C2 (centres unmarked) | 127 to 130 °C |  |
| O=[N+]([O-])c1cn2c(n1)OCC(COc1ccc(-c3ccc(F)cc3)cn1)C2 (centres unmarked) | 160 to 161 °C |  |
| CC1(COCc2cccc(-c3ccc(OC(F)(F)F)cc3)c2)CCn2cc([N+](=O)[O-])nc2O1 (centres unmarked) | 80 to 82 °C |  |
| O=[N+]([O-])c1cn2c(n1)OCC(COc1ccc(-c3ccc(C(F)(F)F)cc3)nc1)C2 (centres unmarked) | 233 to 235 °C |  |
| CC1(COc2ncc(-c3ccc(OC(F)(F)F)cc3)cn2)Cn2cc([N+](=O)[O-])nc2O1 (centres unmarked) | 227 °C (dec.) |  |
| O=[N+]([O-])c1cn2c(n1)OC(COCc1ccc(OCc3ccccc3)cc1)C2 (centres unmarked) | 123 to 124 °C |  |
| CC1(COc2ccc(-c3ccc(C(F)(F)F)cc3)nc2)CCn2cc([N+](=O)[O-])nc2O1 (centres unmarked) | 215 to 217 °C |  |
| CC1(COc2ccc(-c3ccc(OC(F)(F)F)cc3)nc2)CCn2cc([N+](=O)[O-])nc2O1 (centres unmarked) | 202 to 203 °C |  |
| O=[N+]([O-])c1cn2c(n1)OC[C@@H](COc1ccc(OC(F)(F)F)cc1)C2 | 138 to 139 °C |  |
| CC1(COc2ccc(-c3ccc(OC(F)(F)F)cc3)cn2)Cn2cc([N+](=O)[O-])nc2O1 (centres unmarked) | 172 to 174 °C |  |
| O=[N+]([O-])c1cn2c(n1)OCC(COc1ccc(-c3ccc(F)cc3)cc1)C2 (centres unmarked) | 201 to 203 °C |  |
| CC1(COc2ncc(-c3ccc(F)cc3)cn2)Cn2cc([N+](=O)[O-])nc2O1 (centres unmarked) | 196 °C (dec.) |  |
| CC1(COc2ccc(-c3ccc(C(F)(F)F)cc3)cc2)Cn2cc([N+](=O)[O-])nc2O1 (centres unmarked) [Compound 11, 2-methyl-6-nitro-2-({[4′-(trifluoromethyl)[1,1′-biphenyl]-4-yl]oxy}methyl)-2,3-dihydroimidazo[2,1-b][1,3]oxazole] | 219 to 220 °C | MIC [4]: 0.08 µM (≈ 0.0335 µg/mL); pIC50 (VERO cells (CCL-81); 72 h): < 3.89; IC50 [1]: 18 µg/mL (≈ 42.9 µM); IC50 [2]: 0.028 µg/mL (≈ 0.0668 µM); IC50 [3]: 0.47 µg/mL (≈ 1.12 µM) |
| O=[N+]([O-])c1cn2c(n1)OCC(COc1ccc(-c3ccc(OC(F)(F)F)cc3)cc1)C2 (centres unmarked) | 192 to 194 °C |  |
| O=[N+]([O-])c1cn2c(n1)OC(COc1ccc(OCc3ccccc3)cc1)C2 (centres unmarked) | 208 to 210 °C |  |
| CC1(COc2cnc(-c3ccc(OC(F)(F)F)cc3)nc2)Cn2cc([N+](=O)[O-])nc2O1 (centres unmarked) | 223 to 225 °C |  |
| CC1(COCc2cccc(OC(F)(F)F)c2)CCn2cc([N+](=O)[O-])nc2O1 (centres unmarked) | 108 to 110 °C |  |

| Compound | melting point | also measured |
| --- | --- | --- |
| CC1(COc2ccc(-c3ccc(F)cc3)cc2)CCn2cc([N+](=O)[O-])nc2O1 (centres unmarked) | 160 to 162 °C |  |
| CC1(COc2ccc(-c3ccc(OC(F)(F)F)cc3)cn2)CCn2cc([N+](=O)[O-])nc2O1 (centres unmarked) | 195 to 198 °C |  |
| O=[N+]([O-])c1cn2c(n1)OC(COCc1ccc(OC(F)(F)F)cc1)C2 (centres unmarked) | 134 to 135 °C |  |
| O=[N+]([O-])c1cn2c(n1)OCC(COCc1ccc(OCc3ccccc3)cc1)C2 (centres unmarked) [Compound 73, 6-({[4-(benzyloxy)benzyl]oxy}methyl)-2-nitro-6,7-dihydro-5H-imidazo[2,1-b][1,3]oxazine] | 150 to 151 °C | pIC50 (VERO cells (CCL-81); 72 h exposure): 3.95; IC50 [1]: 2.8 µg/mL (≈ 7.08 µM); IC50 [2]: 0.16 µg/mL (≈ 0.405 µM); IC50 [3]: 0.53 µg/mL (≈ 1.34 µM) |
| O=[N+]([O-])c1cn2c(n1)OCC(COc1ccc(-c3ccc(OC(F)(F)F)cc3)nc1)C2 (centres unmarked) | 180 to 181 °C |  |
| CC1(COc2cnc(-c3ccc(F)cc3)nc2)Cn2cc([N+](=O)[O-])nc2O1 (centres unmarked) | 201 to 203 °C |  |
| CC1(COc2cnc(-c3ccc(F)cc3)cn2)Cn2cc([N+](=O)[O-])nc2O1 (centres unmarked) | 200 to 201 °C |  |
| CC1(COc2ccc(-c3ccc(C(F)(F)F)cc3)cn2)CCn2cc([N+](=O)[O-])nc2O1 (centres unmarked) | 212 to 214 °C |  |
| O=[N+]([O-])c1cn2c(n1)OC(COc1ccc(OC(F)(F)F)cc1)C2 (centres unmarked) | 170 to 172 °C |  |
| O=[N+]([O-])c1cn2c(n1)OC(COc1ccc(-c3ccc(OC(F)(F)F)cc3)cn1)CC2 (centres unmarked) | 161 to 163 °C |  |
| CC1(COCc2ccc(OC(F)(F)F)cc2)CCn2cc([N+](=O)[O-])nc2O1 (centres unmarked) | 100 to 101 °C |  |
| CC1(COc2ccc(-c3ccc(OC(F)(F)F)cc3)nc2)Cn2cc([N+](=O)[O-])nc2O1 (centres unmarked) | 209 to 211 °C |  |
| O=[N+]([O-])c1cn2c(n1)OC[C@H](COc1ccc(OC(F)(F)F)cc1)C2 | 139 to 140 °C |  |
| CC1(COc2ccc(OCc3ccccc3)cc2)CCn2cc([N+](=O)[O-])nc2O1 (centres unmarked) | 174 to 176 °C |  |
| O=[N+]([O-])c1cn2c(n1)OC(COc1ccc(-c3ccc(F)cc3)cc1)C2 (centres unmarked) | 224 to 226 °C |  |
| O=[N+]([O-])c1cn2c(n1)OCC(COc1ccc(-c3ccc(C(F)(F)F)cc3)cn1)C2 (centres unmarked) | 180 to 182 °C |  |
| O=[N+]([O-])c1cn2c(n1)OC(COc1ccc(-c3ccc(OC(F)(F)F)cc3)cc1)C2 (centres unmarked) | 200 to 201 °C |  |
| O=[N+]([O-])c1cn2c(n1)OCC(COc1ccc(OC(F)(F)F)cc1)C2 (racemic) | 141 to 143 °C |  |
| O=[N+]([O-])c1cn2c(n1)OCC(COc1ccc(-c3ccc(OC(F)(F)F)cc3)cn1)C2 (centres unmarked) | 182 to 183 °C |  |
| CC1(COc2cnc(-c3ccc(OC(F)(F)F)cc3)cn2)Cn2cc([N+](=O)[O-])nc2O1 (centres unmarked) | 222 to 224 °C |  |
| O=[N+]([O-])c1cn2c(n1)OC(COc1ccc(OCc3ccccc3)cc1)CC2 (centres unmarked) (hydrate or solvate) | 222 to 224 °C |  |
| O=[N+]([O-])c1cn2c(n1)OCC(COc1ccc(-c3ccc(F)cc3)nc1)C2 (centres unmarked) | 214 to 216 °C |  |
| O=[N+]([O-])c1cn2c(n1)OC(COc1ccc(-c3ccc(C(F)(F)F)cc3)cc1)CC2 (centres unmarked) | 242 to 245 °C |  |
